Experimental data as given in ChEMBL document CHEMBL1153625, “Structure-based virtual screening approach to identify novel classes of Cdc25B phosphatase inhibitors” (Bioorg Med Chem Lett, 2009).

Columns and labels:
[1] = molecular target: T1, M-phase inducer phosphatase 2 (Homo sapiens, UniProt P30305); experiment: Inhibition of GST-fused Cdc25B
T1 sequence (P30305 whole entry): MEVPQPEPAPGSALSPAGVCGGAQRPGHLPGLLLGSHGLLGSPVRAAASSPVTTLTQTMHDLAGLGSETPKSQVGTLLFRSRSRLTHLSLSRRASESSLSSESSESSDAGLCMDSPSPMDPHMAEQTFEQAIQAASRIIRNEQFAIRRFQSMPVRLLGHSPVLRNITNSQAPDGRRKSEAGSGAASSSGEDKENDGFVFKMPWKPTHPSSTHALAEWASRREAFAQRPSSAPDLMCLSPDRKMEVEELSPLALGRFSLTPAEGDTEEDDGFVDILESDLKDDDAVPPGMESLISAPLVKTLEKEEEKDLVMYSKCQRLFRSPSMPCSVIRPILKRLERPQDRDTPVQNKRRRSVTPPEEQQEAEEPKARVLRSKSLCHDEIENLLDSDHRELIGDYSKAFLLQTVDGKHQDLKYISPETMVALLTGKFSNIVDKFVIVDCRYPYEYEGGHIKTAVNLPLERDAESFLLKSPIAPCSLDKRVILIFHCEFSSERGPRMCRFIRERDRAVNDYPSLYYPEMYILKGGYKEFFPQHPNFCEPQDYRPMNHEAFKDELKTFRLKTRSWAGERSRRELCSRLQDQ

[2] = molecular target: T2, M-phase inducer phosphatase 1 (Homo sapiens, UniProt P30304); experiment: Inhibition of Cdc25A
T2 sequence (P30304 whole entry): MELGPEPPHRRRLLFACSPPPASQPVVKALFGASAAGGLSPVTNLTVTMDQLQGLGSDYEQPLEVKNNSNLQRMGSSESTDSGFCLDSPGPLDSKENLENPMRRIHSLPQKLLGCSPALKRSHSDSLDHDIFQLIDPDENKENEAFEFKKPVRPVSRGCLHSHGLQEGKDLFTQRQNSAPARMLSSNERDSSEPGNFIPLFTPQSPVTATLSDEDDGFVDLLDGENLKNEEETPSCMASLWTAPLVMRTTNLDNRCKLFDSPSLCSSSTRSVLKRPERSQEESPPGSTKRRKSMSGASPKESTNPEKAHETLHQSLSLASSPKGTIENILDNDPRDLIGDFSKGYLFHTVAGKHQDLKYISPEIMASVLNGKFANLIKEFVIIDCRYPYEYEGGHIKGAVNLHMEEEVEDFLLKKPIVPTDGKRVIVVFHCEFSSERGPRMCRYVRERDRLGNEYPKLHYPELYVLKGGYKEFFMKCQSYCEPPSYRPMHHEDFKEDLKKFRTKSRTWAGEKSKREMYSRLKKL

[3] = Inhibition of YOP; design: species or system Yersinia
[4] = molecular target: T3, Tyrosine-protein phosphatase 1 (Saccharomyces cerevisiae S288c, UniProt P25044); experiment: Inhibition of YPTP1
T3 sequence (P25044 whole entry): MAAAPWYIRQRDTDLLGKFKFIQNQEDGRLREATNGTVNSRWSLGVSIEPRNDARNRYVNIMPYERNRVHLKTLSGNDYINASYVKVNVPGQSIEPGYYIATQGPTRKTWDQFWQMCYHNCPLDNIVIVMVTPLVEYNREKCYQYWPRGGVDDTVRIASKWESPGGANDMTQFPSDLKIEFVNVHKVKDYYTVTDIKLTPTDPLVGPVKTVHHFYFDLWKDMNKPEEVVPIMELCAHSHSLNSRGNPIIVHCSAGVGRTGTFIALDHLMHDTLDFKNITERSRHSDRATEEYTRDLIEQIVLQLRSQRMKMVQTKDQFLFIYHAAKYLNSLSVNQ

[5] = molecular target: T4, Tyrosine-protein phosphatase non-receptor type 1 (Homo sapiens, UniProt P18031); experiment: Inhibition of PTP1B
T4 sequence (P18031 whole entry): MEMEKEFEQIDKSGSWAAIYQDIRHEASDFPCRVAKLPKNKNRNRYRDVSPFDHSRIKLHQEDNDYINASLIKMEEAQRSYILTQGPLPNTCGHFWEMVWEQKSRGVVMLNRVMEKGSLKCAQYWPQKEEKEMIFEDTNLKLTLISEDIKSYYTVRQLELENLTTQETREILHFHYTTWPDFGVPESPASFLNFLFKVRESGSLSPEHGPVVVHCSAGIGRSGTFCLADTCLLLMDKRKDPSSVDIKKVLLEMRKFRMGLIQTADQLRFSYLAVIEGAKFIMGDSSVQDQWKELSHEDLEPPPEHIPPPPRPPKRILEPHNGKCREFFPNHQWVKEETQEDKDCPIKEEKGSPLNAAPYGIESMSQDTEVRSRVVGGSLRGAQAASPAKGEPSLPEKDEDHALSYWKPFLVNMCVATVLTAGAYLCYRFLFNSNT

Row | SMILES | IC50 [1] | IC50 [2] | IC50 [3] | IC50 [4] | IC50 [5]
1 | O=C(O)c1ccc2c(c1)C(=O)/C(=C/c1ccccc1)C2=O | 8.6 µM | 13.3 µM |  |  | 
2 | N#Cc1c(N)n(Cc2ccc3c(c2)OCO3)c2nc3ccccc3nc12 | 9.1 µM | 5.5 µM |  |  | 
3 | O=S(=O)(Nc1cc2nc3ccccc3nc2n1Cc1ccccc1)c1ccccc1 | 0.21 µM | 2.1 µM | > 100 µM | > 100 µM | > 100 µM
4 | O=C1C(Cl)=C(NC(Cc2ccccc2)C(=O)O)C(=O)c2ccccc21 (configuration not stated) | 3.8 µM | 3.5 µM |  |  | 
5 | O=C1C(Cl)=C(NCCc2ccc(F)cc2)C(=O)c2ccccc21 | 9.5 µM | 3.9 µM |  |  | 
6 | O=C(Nc1ccc(Cl)c(Cl)c1)Nc1ncc2c(n1)CC(c1ccco1)CC2=O (configuration not stated) | 13.7 µM | 17.8 µM |  |  | 
7 | N#Cc1c(NS(=O)(=O)c2ccccc2)n(Cc2ccccc2)c2nc3ccccc3nc12 | 0.2 µM | 2.9 µM | > 100 µM | > 100 µM | > 100 µM
8 | Nc1cccc(Nc2nc3ccccc3nc2NS(=O)(=O)c2ccc(Cl)cc2)c1 | 11.1 µM | 2.3 µM |  |  | 
